pIC50: −log10 of the molar value. Calls of active or inactive are those of the source. No cut-off for these calls is given here.
Experiments:
Cathepsin F = target: T1, Cathepsin F (Homo sapiens, UniProt Q9UBX1); test: Inhibition of human recombinant cathepsin F
T1 sequence (Q9UBX1 whole entry): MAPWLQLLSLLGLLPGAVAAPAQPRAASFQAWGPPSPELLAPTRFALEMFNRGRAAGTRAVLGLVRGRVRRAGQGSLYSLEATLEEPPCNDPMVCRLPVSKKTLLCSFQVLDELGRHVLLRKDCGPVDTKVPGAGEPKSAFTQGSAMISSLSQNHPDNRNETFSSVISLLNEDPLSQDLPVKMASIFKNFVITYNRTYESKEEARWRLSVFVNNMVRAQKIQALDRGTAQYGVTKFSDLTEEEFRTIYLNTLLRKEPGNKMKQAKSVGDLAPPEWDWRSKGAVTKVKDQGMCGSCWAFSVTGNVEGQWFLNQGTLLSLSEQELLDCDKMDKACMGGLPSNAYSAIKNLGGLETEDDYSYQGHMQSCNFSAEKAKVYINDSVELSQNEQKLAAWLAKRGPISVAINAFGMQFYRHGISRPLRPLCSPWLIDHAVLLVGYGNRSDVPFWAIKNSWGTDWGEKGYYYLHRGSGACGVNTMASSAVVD

Cathepsin K = target: T2, Cathepsin K (Homo sapiens, UniProt P43235); test: Inhibition of human recombinant cathepsin K
T2 sequence (P43235 whole entry): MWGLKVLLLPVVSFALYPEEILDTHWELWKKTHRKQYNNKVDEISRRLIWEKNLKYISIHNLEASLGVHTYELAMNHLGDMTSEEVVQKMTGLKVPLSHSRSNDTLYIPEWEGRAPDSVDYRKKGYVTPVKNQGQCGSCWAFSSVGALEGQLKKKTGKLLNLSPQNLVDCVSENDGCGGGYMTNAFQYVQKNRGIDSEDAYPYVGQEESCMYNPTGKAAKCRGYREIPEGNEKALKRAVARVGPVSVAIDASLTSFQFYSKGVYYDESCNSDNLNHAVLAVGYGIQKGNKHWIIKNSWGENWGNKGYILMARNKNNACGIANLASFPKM

Pro-cathepsin H = target: T3, Pro-cathepsin H (Homo sapiens, UniProt P09668); test: Inhibition of human recombinant cathepsin H
T3 sequence (P09668 whole entry): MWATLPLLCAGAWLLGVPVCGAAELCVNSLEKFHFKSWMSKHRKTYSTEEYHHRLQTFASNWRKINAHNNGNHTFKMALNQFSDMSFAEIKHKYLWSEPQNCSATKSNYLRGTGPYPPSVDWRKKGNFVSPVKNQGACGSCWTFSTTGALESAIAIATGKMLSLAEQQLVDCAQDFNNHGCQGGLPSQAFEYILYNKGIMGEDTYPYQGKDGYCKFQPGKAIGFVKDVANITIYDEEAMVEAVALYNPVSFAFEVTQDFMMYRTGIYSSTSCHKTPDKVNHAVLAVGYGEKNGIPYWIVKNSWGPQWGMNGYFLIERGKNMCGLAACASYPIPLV

Trypsin (Homo sapiens) = Trypsin (Homo sapiens) (UniProt P07477+P07478+P35030); test: Inhibition of trypsin; type: protein assay
[1] = target: Prothrombin (Homo sapiens) (UniProt P00734); test: Inhibition of thrombin
Cathepsin L2 = target: T4, Cathepsin L2 (Homo sapiens, UniProt O60911); test: Inhibition of human recombinant cathepsin V
T4 sequence (O60911 whole entry): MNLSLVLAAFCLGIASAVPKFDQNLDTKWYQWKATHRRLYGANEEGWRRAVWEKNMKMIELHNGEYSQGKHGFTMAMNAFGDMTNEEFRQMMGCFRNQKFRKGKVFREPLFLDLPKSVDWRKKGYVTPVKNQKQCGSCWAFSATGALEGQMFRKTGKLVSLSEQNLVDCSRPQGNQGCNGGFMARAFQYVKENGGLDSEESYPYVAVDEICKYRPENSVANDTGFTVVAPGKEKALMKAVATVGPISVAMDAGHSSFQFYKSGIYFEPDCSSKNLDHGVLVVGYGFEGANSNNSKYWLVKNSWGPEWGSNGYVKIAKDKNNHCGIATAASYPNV

Cathepsin S = Cathepsin S (Homo sapiens, UniProt P25774); test: Inhibition of human recombinant cathepsin S
Sequence of Cathepsin S (P25774 whole entry): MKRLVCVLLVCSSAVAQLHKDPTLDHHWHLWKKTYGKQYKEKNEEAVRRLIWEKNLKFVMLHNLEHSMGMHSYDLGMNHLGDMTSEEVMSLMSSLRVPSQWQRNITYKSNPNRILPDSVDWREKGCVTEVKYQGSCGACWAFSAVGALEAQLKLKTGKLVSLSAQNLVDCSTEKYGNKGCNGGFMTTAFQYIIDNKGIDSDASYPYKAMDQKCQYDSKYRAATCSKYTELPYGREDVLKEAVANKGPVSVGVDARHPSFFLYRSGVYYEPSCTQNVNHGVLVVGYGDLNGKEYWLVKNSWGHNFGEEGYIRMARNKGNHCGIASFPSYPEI

Cathepsin B = Cathepsin B (Homo sapiens, UniProt P07858); test: Inhibition of human recombinant cathepsin B
Procathepsin L = Procathepsin L (Homo sapiens, UniProt P07711); test: Inhibition of human recombinant cathepsin L
Sequence of Procathepsin L (P07711 whole entry): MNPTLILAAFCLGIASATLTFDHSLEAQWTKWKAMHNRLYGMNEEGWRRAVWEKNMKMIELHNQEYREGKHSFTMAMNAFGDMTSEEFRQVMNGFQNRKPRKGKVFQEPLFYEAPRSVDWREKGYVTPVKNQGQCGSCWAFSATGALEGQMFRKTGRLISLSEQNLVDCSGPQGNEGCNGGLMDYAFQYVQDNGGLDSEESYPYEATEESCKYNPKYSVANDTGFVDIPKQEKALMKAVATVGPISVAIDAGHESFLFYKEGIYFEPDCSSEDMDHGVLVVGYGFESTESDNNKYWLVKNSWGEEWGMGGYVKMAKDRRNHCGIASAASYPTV

Dipeptidyl peptidase 1 = Dipeptidyl peptidase 1 (Homo sapiens, UniProt P53634); test: Inhibition of human recombinant cathepsin C
Sequence of Dipeptidyl peptidase 1 (P53634 25-134 limits assumed): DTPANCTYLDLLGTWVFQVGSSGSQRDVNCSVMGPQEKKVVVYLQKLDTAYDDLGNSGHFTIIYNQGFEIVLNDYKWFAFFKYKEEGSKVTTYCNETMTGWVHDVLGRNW
Sequence of Dipeptidyl peptidase 1 (P53634 231-394 limits assumed): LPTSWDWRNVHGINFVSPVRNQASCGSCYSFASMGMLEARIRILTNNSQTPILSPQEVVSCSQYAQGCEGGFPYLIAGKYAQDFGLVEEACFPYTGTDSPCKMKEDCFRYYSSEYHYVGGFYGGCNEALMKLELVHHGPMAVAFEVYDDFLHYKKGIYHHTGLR
Sequence of Dipeptidyl peptidase 1 (P53634 395-463 limits assumed): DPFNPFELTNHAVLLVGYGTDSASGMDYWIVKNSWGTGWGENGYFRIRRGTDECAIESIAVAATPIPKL

Cc1cccc(OCC2CN(C)C(=O)O2)c1C (stereo not given) was tested, and the pIC50 (Cathepsin F) was under 4.00, the pIC50 (Cathepsin K) was under 4.00 and the pIC50 (Pro-cathepsin H) was under 4.00. The Activity (Trypsin (Homo sapiens)) was “inactive”, the Activity [1] was “inactive” and the pIC50 (Cathepsin L2) was under 4.00. The pIC50 (Cathepsin S) was under 4.00, the pIC50 (Cathepsin B) was under 4.00 and the pIC50 (Procathepsin L) was under 4.00. It also gave a pIC50 (Dipeptidyl peptidase 1) of under 4.00.
For Cc1cccc(O[C@H]2CCN3C[C@H]2OC3=O)c1C (relative stereo), the pIC50 (Cathepsin F) was 6.48, the pIC50 (Cathepsin K) was 7.42 and the pIC50 (Pro-cathepsin H) was 5.58. The Activity (Trypsin (Homo sapiens)) was “inactive”, the Activity [1] was “inactive” and the pIC50 (Cathepsin L2) was 6.88. The pIC50 (Cathepsin S) was 7.80, the pIC50 (Cathepsin B) was 9.00 and the pIC50 (Procathepsin L) was 7.66. The pIC50 (Dipeptidyl peptidase 1) was 7.74.
Work on Cc1cccc(O[C@@H]2CCNC[C@H]2O)c1C yielded a pIC50 (Cathepsin F) of under 4.00, a pIC50 (Cathepsin K) of under 4.00 and a pIC50 (Pro-cathepsin H) of under 4.00. For the same compound, the Activity (Trypsin (Homo sapiens)) was “inactive”, the Activity [1] was “inactive” and the pIC50 (Cathepsin L2) was under 4.00. The pIC50 (Cathepsin S) was under 4.00, the pIC50 (Cathepsin B) was under 4.00 and the pIC50 (Procathepsin L) was under 4.00. It also gave a pIC50 (Dipeptidyl peptidase 1) of under 4.00.
In the case of O=C1O[C@H]2CN1CC[C@@H]2Br, the pIC50 (Cathepsin F) was under 5.00, the pIC50 (Cathepsin K) was under 4.52 and the pIC50 (Pro-cathepsin H) was under 4.00. The Activity (Trypsin (Homo sapiens)) was “inactive”, the Activity [1] was “inactive” and the pIC50 (Cathepsin L2) was under 5.00. It also gave a pIC50 (Cathepsin S) of 5.34, a pIC50 (Cathepsin B) of 6.80 and a pIC50 (Procathepsin L) of 5.24. It also gave a pIC50 (Dipeptidyl peptidase 1) of under 5.00.
With O=C1O[C@@H]2CN1CC[C@@H]2OCc1ccccc1 the pIC50 (Cathepsin F) was 5.42, the pIC50 (Cathepsin K) was 6.29 and the pIC50 (Pro-cathepsin H) was under 5.00. The Activity (Trypsin (Homo sapiens)) was “inactive”, the Activity [1] was “inactive” and the pIC50 (Cathepsin L2) was 5.89. The pIC50 (Cathepsin S) was 6.76, the pIC50 (Cathepsin B) was 8.70 and the pIC50 (Procathepsin L) was 6.58. It also gave a pIC50 (Dipeptidyl peptidase 1) of 6.39.
S=C1O[C@@H]2CN1CC[C@@H]2Oc1ccccc1 showed a pIC50 (Cathepsin F) of under 5.00, a pIC50 (Cathepsin K) of 5.74 and a pIC50 (Pro-cathepsin H) of under 4.00. For the same compound, the Activity (Trypsin (Homo sapiens)) was “inactive”, the Activity [1] was “inactive” and the pIC50 (Cathepsin L2) was 5.29. The pIC50 (Cathepsin S) was 6.16, the pIC50 (Cathepsin B) was 6.28 and the pIC50 (Procathepsin L) was 6.00. The pIC50 (Dipeptidyl peptidase 1) was 6.22.
Work on Cc1cccc(O[C@@H]2CCNC[C@@H]2O)c1C yielded a pIC50 (Cathepsin F) of under 4.00, a pIC50 (Cathepsin K) of under 4.00 and a pIC50 (Pro-cathepsin H) of under 4.00. For the same compound, the Activity (Trypsin (Homo sapiens)) was “inactive”, the Activity [1] was “inactive” and the pIC50 (Cathepsin L2) was under 4.00. For the same compound, the pIC50 (Cathepsin S) was under 4.00, the pIC50 (Cathepsin B) was under 4.00 and the pIC50 (Procathepsin L) was under 4.00. For the same compound, the pIC50 (Dipeptidyl peptidase 1) was under 4.00.
CC(C)CO[C@H]1CCN2C[C@H]1OC2=O showed a pIC50 (Cathepsin F) of 5.74, a pIC50 (Cathepsin K) of 5.90 and a pIC50 (Pro-cathepsin H) of under 5.00. For the same compound, the Activity (Trypsin (Homo sapiens)) was “inactive”, the Activity [1] was “inactive” and the pIC50 (Cathepsin L2) was 6.05. The pIC50 (Cathepsin S) was 6.53, the pIC50 (Cathepsin B) was 8.10 and the pIC50 (Procathepsin L) was 6.64. It also gave a pIC50 (Dipeptidyl peptidase 1) of 6.72.
With Cc1cccc(O[C@H]2CCN3C[C@@H]2OC3=O)c1C (racemic) the pIC50 (Cathepsin F) was 5.23, the pIC50 (Cathepsin K) was 5.61 and the pIC50 (Pro-cathepsin H) was under 4.52. For the same compound, the Activity (Trypsin (Homo sapiens)) was “inactive”, the Activity [1] was “inactive” and the pIC50 (Cathepsin L2) was 5.48. For the same compound, the pIC50 (Cathepsin S) was 6.33, the pIC50 (Cathepsin B) was 7.34 and the pIC50 (Procathepsin L) was 5.90. It also gave a pIC50 (Dipeptidyl peptidase 1) of 5.76.
Work on O=C1O[C@@H]2CN1CC[C@@H]2Oc1ccccc1 yielded a pIC50 (Cathepsin F) of 6.31, a pIC50 (Cathepsin K) of 6.98 and a pIC50 (Pro-cathepsin H) of 5.18. For the same compound, the Activity (Trypsin (Homo sapiens)) was “inactive”, the Activity [1] was “inactive” and the pIC50 (Cathepsin L2) was 6.80. For the same compound, the pIC50 (Cathepsin S) was 7.77, the pIC50 (Cathepsin B) was 8.30 and the pIC50 (Procathepsin L) was 7.59. For the same compound, the pIC50 (Dipeptidyl peptidase 1) was 7.54.
